# Data from patent publication US11819503B2 (priority 2019, dated 2023).
# Where “and” joins values, the source holds several entries; their conditions need not be identical. Equal entries are not always repeated. Entries after “also recorded” stand apart in the source; their conditions may differ.
# Legend:
# [1] = test system: C. immitis (isolate UTHSCSA DI17-143); assay: microbe, parasite or virus in culture; assay type: cell-based; conditions: Coccidioides immitis
# C. immitis [2] = test system: C. immitis; set-up: species or system ICR mice; conditions: mouse, in vivo
# C. immitis [3] = test system: C. immitis; set-up: species or system ICR mice; conditions: mouse, in vivo; remark: listed apart in the source
# C. immitis [4] = test system: C. immitis; set-up: species or system ICR mice; conditions: mouse, in vivo; remark: listed apart in the source
# [5] = target: recombinant human enzyme (dihydroorotate dehydrogenase) (Homo sapiens, UniProt Q02127); conditions: cited from earlier work
# coccidioidomycosis = conditions: human, in vivo
# [6] = mouse, in vivo, po
# [7] = test system: Coccidioides posadasii (n = 24); assay: microbe, parasite or virus in culture; assay type: cell-based; conditions: for MIC50 / MIC90 / MIC: Coccidioides posadasii; for MIC: read-out: GM MIC
# [8] = test system: Coccidioides immitis (n = 21); assay: microbe, parasite or virus in culture; assay type: cell-based; conditions: for MIC50 / MIC90 / MIC: Coccidioides immitis; for MIC: read-out: GM MIC
# in vivo = conditions: mouse; for AUC(0-t): AUC 0-12
# [9] = test system: dihydroorotate dehydrogenase in yeast, including Candida and Cryptococcus species; conditions: cited from earlier work
# [10] = test system: All Coccidioides isolates (n = 59); assay: microbe, parasite or virus in culture; assay type: cell-based, Coccidioides species; conditions: for MIC: read-out: GM MIC
# Sequence of recombinant human enzyme (dihydroorotate dehydrogenase) (Q02127 whole entry): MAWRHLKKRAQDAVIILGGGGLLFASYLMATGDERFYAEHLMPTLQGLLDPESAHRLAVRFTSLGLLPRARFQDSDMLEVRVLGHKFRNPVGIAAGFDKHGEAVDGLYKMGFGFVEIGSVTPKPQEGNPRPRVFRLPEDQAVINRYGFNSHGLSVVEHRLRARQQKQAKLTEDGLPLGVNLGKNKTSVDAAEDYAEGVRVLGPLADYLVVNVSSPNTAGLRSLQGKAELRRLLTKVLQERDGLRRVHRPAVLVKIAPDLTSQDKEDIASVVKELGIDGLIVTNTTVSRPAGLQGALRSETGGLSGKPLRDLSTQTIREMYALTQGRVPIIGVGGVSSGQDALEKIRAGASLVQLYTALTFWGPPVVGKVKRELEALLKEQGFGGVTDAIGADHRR
compound,measurement,setting,value
"OC(Cn1cncn1)(Cn1cncn1)c1ccc(F)cc1F [fluconazole, reference compound]",MIC,[1],16 µg/mL
same,rebound in fungal burdens once therapy was stopped,C. immitis [2],rebound in fungal burdens
same,median survival time,C. immitis [3],30 days and 28 days
same,brain fungal burden (mean of combined results),C. immitis [4],1.33 log 10 CFU/g
"Cc1cc(-c2ccccc2)c(C(=O)C(=O)Nc2ccc(N3CCN(c4ncc(F)cn4)CC3)cc2)n1C [olorofim, 2-(1,5-dimethyl-3-phenyl-1H-pyrrol-2-yl)-N-(4-(4-(5-fluoropyrimidin-2-yl)piperazin-1-yl)phenyl)-2-oxoacetamide]",inhibition of dihydroorotate dehydrogenase,[5],little to no inhibition
same,MIC,[1],0.015 µg/mL
same,clinical status at 3 months,coccidioidomycosis,no longer required the use of oxygen and was able to walk unaided
same,clinical status at 6 months,coccidioidomycosis,continues to be asymptomatic 6 months after initiation of olorofim therapy
same,symptomatic response,coccidioidomycosis,symptomatic improvements within a few weeks; also recorded: symptomatic improvement within three weeks
same,time to symptomatic improvement,coccidioidomycosis,≤ 4 weeks
same,Levels in brain compared with plasma,[6],slightly lower than those in plasma
same,Levels in lung compared with plasma,[6],slightly higher
same,exposure in females compared with males,[6],slightly higher in females
same,MIC range,[7],≤0.008 to 0.015 µg/mL
same,MIC50,[7],≤ 0.008 µg/mL
same,MIC90,[7],0.015 µg/mL
same,MIC,[7],0.009 µg/mL
same,MIC range,[8],≤0.008 to 0.015 µg/mL
same,MIC50,[8],≤ 0.008 µg/mL
same,MIC90,[8],0.015 µg/mL
same,MIC,[8],0.009 µg/mL
same,mice with no fungal colonies in plated whole-brain homogenates,C. immitis [2],7 of the 10 and 7 of 10
same,Tmax,"in vivo; both, Plasma Tmax",≤ 1 h
same,AUC(0-t),"in vivo; female, po, 10 mg/kg",11400 ng·h/mL
same,Tmax,"in vivo; female, po, 10 mg/kg, Tmax",1 h
same,AUC(0-t),"in vivo; female, po, 20 mg/kg",26600 ng·h/mL
same,Cmax,"in vivo; female, po, 20 mg/kg",4610 ng/mL
same,AUC(0-t),"in vivo; female, po, 30 mg/kg",30800 ng·h/mL
same,Cmax,"in vivo; female, po, 30 mg/kg",4110 ng/mL
same,Tmax,"in vivo; female, po, 30 mg/kg, Tmax",1 h
same,AUC(0-t),"in vivo; male, po, 10 mg/kg",8700 ng·h/mL
same,Tmax,"in vivo; male, po, 10 mg/kg, Tmax",0.5 h
same,AUC(0-t),"in vivo; male, po, 20 mg/kg",22100 ng·h/mL
same,Cmax,"in vivo; male, po, 20 mg/kg",3910 ng/mL
same,Tmax,"in vivo; male, po, 20 mg/kg, Tmax",1 h
same,AUC(0-t),"in vivo; male, po, 30 mg/kg",27700 ng·h/mL
same,Cmax,"in vivo; male, po, 30 mg/kg",4110 ng/mL
same,Tmax,"in vivo; male, po, 30 mg/kg, Tmax",1 h
same,half-life,in vivo,~2 h
same,inhibition of dihydroorotate dehydrogenase,[9],little to no inhibition
same,MIC50,[10],≤ 0.008 µg/mL
same,MIC90,[10],0.015 µg/mL
same,MIC,[10],0.011 µg/mL
same,day on which mice began to succumb to infection,C. immitis [3],18 days
same,median survival time,C. immitis [3],22 days and 26 days and 23.5 days and > 30 days
same,percentage of mice that survived to the study endpoint,C. immitis [3],80%
same,brain fungal burden (mean CFU count),C. immitis [4],4.36 log 10 CFU/g and 3.41 log 10 CFU/g
same,"fungal burdens, three times daily compared to twice daily administration",C. immitis [4],further reductions in fungal burdens
"C[C@@H](c1ncncc1F)[C@](O)(Cn1cncn1)c1ccc(F)cc1F [voriconazole, reference compound]",MIC,[1],0.125 µg/mL
same,MIC range,[7],≤0.03 to 0.25 µg/mL
same,MIC50,[7],0.125 µg/mL
same,MIC90,[7],0.125 µg/mL
same,MIC,[7],0.103 µg/mL
same,MIC range,[8],≤0.03 to 0.25 µg/mL
same,MIC50,[8],0.06 µg/mL
same,MIC90,[8],0.125 µg/mL
same,MIC,[8],0.072 µg/mL
same,MIC50,[10],0.125 µg/mL
same,MIC90,[10],0.25 µg/mL
same,MIC,[10],0.113 µg/mL
